Measured values taken from patent US20240342116A1, “TARGETING SOX10+ BONE MARROW GLIAL CELLS FOR TREATING MYELOFIBROSIS” (The Trustees of Columbia University in the City of New York, priority 2023, published 2024).
“Also recorded” adds a separate entry of the source.

Columns and labels:
[1] = target: T1, alarmin complex (S100A8/A9) (Mus musculus, UniProt P31725); conditions: reference 63; cited from earlier work
T1 sequence (P31725 2-113 limits assumed): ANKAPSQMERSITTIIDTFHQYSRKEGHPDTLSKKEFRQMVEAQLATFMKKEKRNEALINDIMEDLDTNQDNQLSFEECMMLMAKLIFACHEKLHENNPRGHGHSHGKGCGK

[2] = tested on: Sox10+ glial cells / ErbB3+ glial cells; assay: Use examples: treatment of a subject with myelofibrosis; conditions: after one or more doses
Experimental: The subject is treated with a combined Jak inhibition and ErbB3 pathway inhibition, using, e.g., an antibody or antibody fragment agent which blocks ErbB3. […] The combined treatment targets both the hematopoietic compartment and the bone marrow niche.

[3] = tested on: Sox10+ glial cells in the bone marrow; assay: Bone marrow glial cell ablation (chemical sympathectomy) with 6-OHDA in the MPLW515L PMF model

Row | Compound | PMF features [1] | symptom(s) of myelofibrosis [2] | depletion of Sox10+ glial cells in the bone marrow ([3]; 6-OHDA-treated mice) | body weight loss ([3]; 6-OHDA-treated mice, 50 mg/kg i.v. twice on alternating days) | bone marrow cellularity ([3]; MPLW515L PMF mice vs vehicle) | liver size / weight ([3]; MPLW515L PMF mice vs vehicle) | spleen size / weight ([3]; MPLW515L PMF mice vs vehicle) | bone marrow fibrosis ([3]; MPLW515L PMF mice vs vehicle-treated control) | levels of active TGF-β in the bone marrow ([3]; bone marrow fluid, ELISA, MPLW515L PMF mice vs vehicle) | levels of active TGF-β in the serum ([3]; serum, ELISA, MPLW515L PMF mice vs vehicle)
1 | COc1cccc2c1c(O)c(C(=O)N(C)c1ccc(C(F)(F)F)cc1)c(=O)n2C [tasquinimod] | ameliorated | – | – | – | – | – | – | – | – | –
2 | NCCc1cc(O)c(O)cc1O [6-OHDA, 6-hydroxydopamine] | – | one or more improvements | efficiently depleted | no significant body weight loss | significant increase | reduced; also recorded: decreased | reduced; also recorded: decreased | significantly reduced; also recorded: ameliorated | significantly reduced | without affecting
